Legend:
[1] = tested on: Human ovarian cancer cell line (A2780); assay: Potentiation of antitumor effect of carboplatin, A2780 subcutaneous implant (Test Example 3); type: in vivo, nude rats; conditions: compound-I 16 mg/kg/day p.o. day 1-14
Method: In the figure, the asterisk represents a result having a statistically significant difference compared with the single-drug administration group. FIG. 1 and Table 10 show the results. […] Carboplatin was prepared by diluting a […] injection (Bristol-Myers Squibb, 50 mg/5 mL) two-fold with physiological saline to enable administration at a carboplatin dose of 50 mg/kg/day. Further, the test liquid of Compound-I was prepared by adjusting its dose to 16 mg/kg/day. […] The single-drug administration group was administered 0.5% HPMC or a physiological saline as a vehicle instead of Compound-I or carboplatin. […] FIG. 5 and Table 12 show the results. […] The effect of the combined administration was also statistically determined in the same manner as in Test Example 1. In the figure and the table, the asterisk represents a result having a statistically significant difference compared with the single-drug administration group.

[2] = tested on: Human stomach cancer cell line (NCI-N87); assay: Potentiation of antitumor effect of paclitaxel, NCI-N87 subcutaneous implant in nude mice (Test Example 2); type: in vivo, BALB/cA Jcl-nu/nu mice
Method: In the figure, the asterisk represents a result having a statistically significant difference compared with the single-drug administration group. FIG. 1 and Table 10 show the results. […] Ltd.) was prepared to enable administration at a paclitaxel dose of 60 mg/kg/day. Further, test liquids for the groups receiving only Compound-I were prepared to enable administration at Compound-I doses of 8 mg/kg/day, 16 mg/kg/day, and 24 mg/kg/day. […] In the groups receiving the two drugs, Compound-I was administered at doses of 8 mg/kg/day, 16 mg/kg/day, and 24 mg/kg/day, and paclitaxel was administered at a dose of 60 mg/kg/day. The evaluation was performed in the same manner as in Test Example 1. The effect of the combined administration was also statistically determined in the same manner as in Test Example 1. In the figure and the table, the asterisk represents a result having a statistically significant difference compared with the single-drug administration group. FIG. 3 and Table 11 show the results.

[3] = tested on: Human stomach cancer cell line (4-1ST); assay: Potentiation of antitumor effect of TS-1, 4-1ST subcutaneous implant in nude mice (Test Example 8); type: in vivo, BALB/cA Jcl-nu/nu mice
Method: (§1) As an index of antitumor effect, the TV at Day 15 was measured for each of the drug administration groups, and the relative tumor volume (RTV) relative to Day 1 and T/C (%) were calculated by the following formulas to evaluate the antitumor effect. […] In the figure, the asterisk represents a result having a statistically significant difference compared with the single-drug administration group.
(§2) FIG. 1 and Table 10 show the results. TV (mm^3)=(length×width^2)/2 RTV=(TV at Day 15)/(TV at Day 1) T/C(%)=(average RTV value of the test liquid administration group)/(average RTV value of the control group)×100
Human stomach cancer cell line (4-1ST) was subcutaneously implanted into the right flank of 6-week-old male BALB/cA Jcl-nu/nu mice, and was used in the same manner as in Test Example 1.
TS-1 was prepared by mixing FT (tegafur; Taiho Pharmaceutical Co., Ltd.), CDHP (gimeracil; Taiho Pharmaceutical Co., Ltd.) and Oxo (oteracil potassium; Taiho Pharmaceutical Co., Ltd.) at a molar ratio of 1:0.4:1, adding a 0.5% (w/v) HPMC aqueous solution to the mixture at an FT concentration of 1.66 mg/mL, and subjecting the mixture to a ultrasonic treatment to obtain an even suspension (an administration liquid having a double concentration of the liquid in the group of 8.3 mg/kg/day dose). The suspension was diluted two-fold with a 0.5% (w/v) HPMC aqueous solution to a concentration of 0.83 mg/mL, thereby yielding an administration liquid to be used for the group of 8.3 mg/kg/day dose. Further, the test liquid of Compound-I was prepared by adjusting its dose to 16 and 24 mg/kg/day.
Compound-I and TS-1 were orally administered once a day for 14 days from Day 1. In the combined administration groups, Compound-I at a dose of 16 and 24 mg/kg/day, and TS-1 at a dose of 8.3 mg/kg/day were administered, and the evaluation was performed in the same manner as in Test Example 1. FIGS. 15A and 15B, and Table 17 show the results.
In the same manner as in Test Example 7, the effect of the combined administration was also statistically determined. In the figure and the table, the asterisk represents a result having a statistically significant difference compared with the single-drug administration group.

[4] = tested on: Human stomach cancer cell line (NCI-N87); assay: Potentiation of antitumor effect of everolimus, NCI-N87 subcutaneous implant in nude mice (Test Example 7); type: in vivo, BALB/cA Jcl-nu/nu mice; conditions: compound-I 16 mg/kg/day p.o. day 1-14
Method: as §1, §2
Human stomach cancer cell line (NCI-N87) was subcutaneously implanted into the right flank of 7-week-old male BALB/cA Jcl-nu/nu mice, and was used in the same manner as in Test Example 1.
In the group receiving only everolimus (IS Chemical Technology), the test liquid was prepared to enable administration at an everolimus dose of 5 mg/kg/day. A vehicle of 5% ethyl alcohol/5% PEG400/4% Tween 20/86% distilled water was used. In the groups receiving only Compound-I, the test liquid was prepared by diluting Compound-I with 0.5% HPMC to enable administration at a Compound-I dose of 16 mg/kg/day. In the combined administration group, Compound-I was administered at a dose of 16 mg/kg/day, and everolimus was administered at a dose of 5 mg/kg/day. Both Compound-I and everolimus were orally administered once a day for 14 days from Day 1, and the evaluation was performed in the same manner as in Test Example 1. FIG. 13 and Table 16 show the results.
In the figure and the table, the asterisk represents a result having a statistically significant difference compared with the single-drug administration group.

[5] = compound-I 8 mg/kg/day p.o. day 1-14
[6] = compound-I 16 mg/kg/day p.o. day 1-14
[7] = compound-I 24 mg/kg/day p.o. day 1-14

CC1(O)CC(N)(c2ccc(-c3nc4n(c3-c3ccccc3)COc3ccncc3-4)cc2)C1 (stereo not drawn) [compound-I, trans-3-amino-1-methyl-3-(4-(3-phenyl-5H-imidazo[1,2-c]pyrido[3,4-e][1,3]oxazin-2-yl)phenyl)cyclobutanol]
RTV day 15 Mean ± SD [1]: 20.86 ± 4.84
T/C (%) [1]: 81%
RTV day 15 Mean ± SD [2, 5]: 2.02 ± 0.41
T/C (%) [2, 5]: 59%
RTV day 15 Mean ± SD [2, 6]: 1.32 ± 0.38
T/C (%) [2, 6]: 39%
RTV day 15 Mean ± SD [2, 7]: 0.98 ± 0.28
T/C (%) [2, 7]: 29%
RTV day 15 Mean ± SD [3, 6]: 4.53 ± 0.59
T/C (%) [3, 6]: 38.1%
RTV day 15 Mean ± SD [3, 7]: 3.83 ± 0.48
T/C (%) [3, 7]: 32.2%
RTV day 15 Mean ± SD [4]: 1.19 ± 0.27
T/C (%) [4]: 43%

— patent publication US9375434B2, “Antitumor effect potentiator composed of imidazooxazine compound” (Taiho Pharmaceutical Co., Ltd., priority 2012, dated 2016)
